From article PMC5677254, “Design, Synthesis, and Characterization of N-Oxide-Containing Heterocycles with in Vivo Sterilizing Antitubercular Activity” (Journal of Medicinal Chemistry, 2017)
Converted amounts (≈) assume the structure as drawn. “And” between values parts separate entries of the source, which are not always exact repeats. Identical values can stand only once. “Also recorded” adds a separate entry of the source. Like-named read-outs stand apart in the source and are kept apart here.

How the values were obtained:
[1] = Cytotoxicity against MRC-5 cell line; conditions: human, cytotoxicity IC50, MRC-5 cell line
[2] = tested on: Candida albicans (ATCC 10231); assay: Spectrum of activity, OD570 after 48 h; type: cell-based; conditions: ATCC10231, read-out: MIC90 (antimicrobial activity)
Method: (§1) Determination of Minimal Inhibitory Concentration (MIC90) Against Bacteria in Dormant […]
(§2) The selective compounds (SI ≥ 10) were tested against the mycobacterium in a dormant state. The cultures were thawed, diluted in Middlebrook 7H12 broth, and sonicated for 5 s. The cultures were diluted to obtain the concentration between […] and 2 × 10^6 CFU/mL. TwoHfold serial dilutions of the compounds were prepared in a volume of […] in white 96Hwell microtiter plates, followed by the addition of […] of the cell suspension. The microplate cultures were placed under anaerobic conditions (oxygen concentration less than 0.16%) by using an Anoxomat model WS8080 (MART Microbiology) followed by two cycles of evacuation and filling with a mixture of 10% hydrogen (H2), 5% carbon dioxide (CO2), and the balance with nitrogen (N2). An anaerobic indicator strip was placed inside the chamber to visually confirm the removal of oxygen. The plates were incubated at 37°C for 10 days and then transferred to an ambient gaseous condition (5% CO2H enriched air) incubator for a 28 h “recovery.” On day 11 (after the 28Hh aerobic recovery), we determined the luminescence and calculated the MIC90.4
(§3) To establish the spectrum activity, we determined the MIC90 against E. coli (ATCC 25922) and S. aureus (ATCC 29213) by measuring the optical density at 570 nm after 16 h of incubation in Mueller–Hinton II broth (Becton Dickinson, Sparks; Maryland, United States) and against C. albicans (ATCC 10231) at OD570 after 48 h in Cellgro RPMI 1640 medium (Mediatech Inc., Manassas, Virginia, United States). The MIC was defined as the lowest concentration resulting in 90% reduction in absorption relative to that of untreated control cultures.
(§4) Determination of Minimal Inhibitory Concentration Against Isogenic Monoresistant Strains

[3] = tested on: mouse peripheral blood reticulocytes; conditions: 50, 100, 200 and 500 mg/kg by gavage, Swiss mice
M. tuberculosis Erdman = assay: Infection and treatment: efficacy against acute TB in mice; type: in vivo, mouse; conditions: 200 mg/kg in microemulsion, once daily oral gavage, 5 days/week, day 10 to 29 postinfection, BALB/c mice
[4] = tested on: cytochrome P450 isoforms (all isoforms tested); assay: in vitro; conditions: human, microsomes
[5] = Caco-2 permeability assay; type: in vitro ADME; conditions: human, basolateral to apical
Method: (§5) In vitro hydrolysis was performed by HPLC method using a Shimadzu HPLC model CBMH20A (Shimadzu®) and an Agilent® Eclipse XDB C18 column (250 × 4.6 mm, 5 µm). The isocratic flow was 60:40 (water:acetonitrile, v/v) and the flow rate was 1.0 mL/min. The volume injected was 20.0 µL and the wavelength in the detector (UVHVIS) was 210 nm. […]
(§6) of 100 µg/mL. This solution was then diluted to 20 µg/mL using two different PBS buffers to provide the following pH values: 5.5 and 7.4. During the assay, all samples were maintained at constant agitation using a shaker (400 rpm) at 37°C. The aliquots were taken from the solution at the following times: 0, 1, 2, 4, 8, 10, 20, and 24 h. All analyses were conducted in triplicate, and the results were expressed as the averages of the concentrations in percentages (±standard error of the […]
(§7) Plasma Protein Binding Assay […]
(§8) of the mixture in a RED (Rapid Equilibrium Dialysis, Pierce) device against PBS and incubated on an orbital shaker for 4 h at 37°C. […] The samples were centrifuged and the supernatant was recovered and analyzed by Liquid chromatography–mass spectrometry (LCHMS)/MS. […]
(§9) the twoHday interval. […] Similarly, for basolateral to apical (B→A) permeability, the compound was added to the B side and the amount of permeation was determined on the A side. […]

Caco-2 cells = assay: Caco-2 permeability assay; type: in vitro ADME
Method: as §5, §6, §7, §8, §9

BALB/c mice [6] = conditions: H&E, group treated with compound 8
BALB/c mice [7] = assay: Tolerability test in BALB/c mice and toxicological analysis; conditions: 10 days
M. tuberculosis H37Rv = assay: Microarray gene expression analysis; type: cell-based, Mycobacterium tuberculosis; conditions: 4 h of exposure at 2× MIC, versus vehicle
[8] = tested on: Escherichia coli (ATCC 25922); assay: Spectrum of activity, OD570 after 16 h; type: cell-based; conditions: ATCC25922, read-out: MIC90 (antimicrobial activity)
Method: as §1, §2, §3, §4

[9] = tested on: Staphylococcus aureus (ATCC 29213); assay: Spectrum of activity, OD570 after 16 h; type: cell-based; conditions: ATCC29213, read-out: MIC90 (antimicrobial activity)
Method: as §1, §2, §3, §4

Mtb H37Rv (ATCC 27294) = assay: Resazurin microtiter assay (REMA), MIC90 against bacteria in active state; type: cell-based; conditions: Mycobacterium tuberculosis
[10] = tested on: M. tuberculosis H37Rv (ATCC 27294) in J774A.1 macrophages; assay: Intramacrophage activity; type: cell-based, Mycobacterium tuberculosis
[11] = tested on: M. tuberculosis H37Rv (ATCC 27294); assay: Time-kill curves (bactericidal kinetics); type: cell-based, Mycobacterium tuberculosis
human plasma = assay: Plasma protein binding assay (rapid equilibrium dialysis); type: in vitro ADME; conditions: 5 µM, 4 h at 37°C
Method: as §5, §6, §7
as §8, with “37°C. Aliquots from plasmaH and PBSHbased samples were collected, an equal volume of PBS was added to the plasma sample, and an equal volume of plasma was added to the PBS sample.” for “37°C.”

[12] = 200 mg/kg daily oral, vs control group

Question: Which IC50 [1] does the source give for `O=C(N/N=C/c1ccc2no[n+]([O-])c2c1)c1ccncc1` [Compound 8, (E)-6-((2-Isonicotinoylhydrazono)methyl)benzo[c][1,2,5]oxadiazole 1-Oxide] here?
Answer: 147 mg/L (≈ 519 µM)

Question: What about the MIC90 [2] of the same compound?
Answer: > 200 µM

Question: What about the “genotoxicity (micronucleated reticulocytes)” value [3] of the same compound?
Answer: not genotoxic at any concentration tested

Question: What about the “Mtb colonies (CFU) in homogenized lungs” value (M. tuberculosis Erdman) of the same compound?
Answer: reduction of Mtb to undetectable levels; also recorded: no colonies were observed; also recorded: No detectable Mtb

Question: And the IC50 [4]?
Answer: > 15 µM

Question: What about the Papp B→A [5] of the same compound?
Answer: 39 nm/s

Question: What about the Caco-2 permeability profile (Caco-2 cells) of the same compound?
Answer: good permeability profile

Question: What about the histology of kidneys (BALB/c mice [6]) of the same compound?
Answer: morphologically normal

Question: And the “behavior parameters (hippocratic screening)” value (BALB/c mice [7]; 200 mg/kg daily oral gavage)?
Answer: No significant variation in the behavior

Question: What about the “alanine aminotransferase in plasma” value (BALB/c mice [7]; [12]) of the same compound?
Answer: no significant differences

Question: What about the “alkaline phosphatase in plasma” value (BALB/c mice [7]; [12]) of the same compound?
Answer: no significant differences

Question: And the “aspartate aminotransferase in plasma” value (BALB/c mice [7]; [12])?
Answer: no significant differences

Question: What about the “changes in the weight of organs (heart, lungs, spleen, kidneys, liver)” value (BALB/c mice [7]; [12]) of the same compound?
Answer: No statistically significant difference

Question: And the “effect on gene expression” value (M. tuberculosis H37Rv)?
Answer: significant upregulation in the majority of ribosomal genes as well as all genes encoding subunits of ATP synthase

Question: What about the MIC90 [8] of the same compound?
Answer: > 200 µM

Question: What about the MIC90 [9] of the same compound?
Answer: > 200 µM

Question: And the MIC90 (Mtb H37Rv (ATCC 27294); actively replicating M. tuberculosis H37Rv, REMA, read-out: MIC90)?
Answer: 1.1 µM and 0.31 µg/mL

Question: What about the MIC90 (Mtb H37Rv (ATCC 27294); supplementary CSV, read-out: Mtb MIC90) of the same compound?
Answer: 1.1 µM (≈ 0.312 µg/mL)

Question: And the intracellular inhibition [10]?
Answer: around 90%

Question: What about the “reduction of CFU (sterilization of cultures)” value ([11]; after 48 h of exposure, 41.24 μM) of the same compound?
Answer: ~6.7 log10

Question: What about the bactericidal profile ([11]; time-kill kinetic experiments up to 15 days) of the same compound?
Answer: bactericidal with an early bactericidal effect

Question: What about the “human plasma protein binding (% free)” value (human plasma) of the same compound?
Answer: 46.5 % free
